# Experimental data from patent publication US20100255001A1, “BLOCKERS OF SEROTONIN AND ITS RECEPTORS FOR THE TREATMENT OF HEPATITIS” (priority 2007, published 2010).
# Key:
# [1] = Serotonin treatment without infection, effect on liver
# LCMV = assay type: in vivo, C57BL/6 mice; conditions: 2×10^4 pfu LCMV, serotonin 5 mg/mouse/day
smiles,measurement,setting,value
NCCc1c[nH]c2ccc(O)cc12 [serotonin],effect on the liver without infection,[1],harmless to the liver
same,time of maximum ALT level after infection,LCMV,10 days
same,replicating virus in liver (viral titers),"LCMV; eight days after infection, vehicle treated mice cleared LCMV by day 8",high levels of replicating virus
same,ALT levels in the serum,LCMV; maximum at day 10 after infection,more than 1000 U/I
